Assay results from patent US20120128630A1, “1-(6 MEMBERS AZO-HETEROCYCLIC)-PYRROLIN-2-ONE COMPOUNDS AS INHIBITORS OF HEPATITIS C NS5B POLYMERASE, THE PHARAMACEUTICAL COMPOSITION THEREOF AND THEIR THERAPEUTIC USE” (priority 2009, published 2012).
pEC50: −log10 of the molar value.

Columns and labels:
[1] = biological target: T1, HCV NS5B with a deletion of the 21 C-terminal amino acids (Hepatitis C virus genotype 1b, UniProt Q9WMX2); test: HCV NS5B RdRp enzyme assay; assay type: biochemical
T1 construct: purified HCV NS5B with a deletion of the 21 C-terminal amino acids
Protocol: The assay was performed in a total volume of 20 μl containing 20 mM Tris pH 7.5, 1 mM DTT, 17 U RNasin, 50 mM NaCl, 10% DMSO, 5 mM MgCl2, 0.5 mM each of the 3 NTPs (ATP, CTP, GTP), 86 nM RNA template (341 nt from the 3′ end of HCV minus strand RNA), 50 nM of purified HCV NS5B with a deletion of the 21 C-terminal amino acids and 2 μCi [^3H]UTP (46 Ci.mmol^−1). The reaction mixture was incubated for 2 h at 25-30° C. and the radiolabeled products were precipitated by the addition of 10% TCA. The radioactivity incorporated was quantified by counting in a Wallac scintillation counter. Increasing concentrations of tested compounds were added to the complete RdRp reaction mixture. After a two hour incubation period at 25-30° C., the amount of labeled product was determined as above. Two types of control reactions were done: a negative control corresponding to the complete mixture without enzyme and a positive control with enzyme but without compounds. In each experiment, test and control samples are in duplicate.
The level of activity with each compound concentration was expressed with the formulae: […]
The IC50 value was calculated as the compound concentration reducing polymerase activity by 50%.

[2] = biological target: T2, HCV NS5B genotype 1b (Hepatitis C virus genotype 1b, UniProt Q9WMX2); test: 3D-SCREEN assay (NS5B 3D-Screen platform, luciferase reporter gene); assay type: cell-based; conditions: EC50_3DS_NS5B, Table 1, 3D-SCREEN assay results; Huh-7 cells, 24 hours with compound, firefly luciferase reporter
T2 construct: The protein was expressed with a 21 amino acid C-terminal deletion to remove transmembrane domain; expressed in transfected cells; host or cells: Huh-7
How it was run: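 Huh-7 cells transiently co-transfected with NS5BΔ21/Gal4-DBD, 3D-Sensor peptide I4/VP16 and firefly luciferase reporter. Compounds added 2 h after seeding, 1% DMSO final, 24 h incubation. Luciferase luminescence read; % inhibition relative to no-compound signal.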

[3] = tested on: HCV replicon Luc Neo ET; test: Luc Neo ET Replicon assay; assay type: cell-based, Hepatitis C virus; conditions: Hepatitis C virus, 72 h, Table 3, titled RdRp enzyme assay results, EC50_Replicon LucneoET; 72 hours with compound, luciferase
How it was run: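 Huh-7-derived Luc Neo ET bicistronic HCV replicon cells (adaptive mutations E1202G, T1280I, K1846T) treated 24 h after seeding with compounds for 72 h, 1% DMSO final, 37 °C. Firefly luciferase luminescence read after lysis; % inhibition from background-corrected RLU relative to untreated signal.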

**Q.** Which results are given for Cc1ccc(N2C(=O)C(O)=C(C(=O)c3ccc(C(C)C)cc3)C2c2ccc(C(F)(F)F)cc2)nn1 (stereo not shown) [Example 63, 3-hydroxy-4-(4-isopropyl-benzoyl)-1-(6-methyl-pyridazin-3-yl)-5-(4-trifluoromethyl-phenyl)-1,5-dihydro-pyrrol-2-one]?
**A.** melting point: 268 to 270 °C; inhibition at 10 µM [1]: 50%; pEC50 [2]: 7.22; pEC50 [3]: 7.00
